Experimental data: patent US11535633B2, “Fused tricyclic heterocycle compounds and therapeutic uses thereof” (Jiangsu Hengrui Medicine Co., Ltd., priority 2018, dated 2022)

Experiments:
[1] = biological target: T1, hSTING c-terminal domain (purified hSTING aa154-342) (Homo sapiens, UniProt Q86WV6); test: Thermal shift assay for measuring the relative binding affinity to hSTING c-terminal domain; conditions: Tm of sample minus mean Tm of negative control (buffer, 2% DMSO), SYPRO Orange
T1 construct: Purified hSTING (aa154-342)
T1 sequence (Q86WV6 154-342): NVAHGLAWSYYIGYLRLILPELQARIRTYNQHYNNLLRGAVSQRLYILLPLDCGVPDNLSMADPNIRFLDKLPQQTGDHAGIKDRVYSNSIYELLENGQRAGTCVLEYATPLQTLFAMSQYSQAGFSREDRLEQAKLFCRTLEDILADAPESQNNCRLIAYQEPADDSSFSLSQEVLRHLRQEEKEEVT

[2] = biological target: T2, STING in THP1-Dual KI-hSTING-R232 cells (Homo sapiens, UniProt Q86WV6, H232R); test: Human THP1 reporter cell assay (IRF luciferase reporter); type: cell-based; conditions: 24 hours incubation
T2 construct: host or cells: THP1-Dual KI-hSTING-R232 cells (human monocytic THP-1 reporter line)
T2 sequence (Q86WV6 whole entry H232R): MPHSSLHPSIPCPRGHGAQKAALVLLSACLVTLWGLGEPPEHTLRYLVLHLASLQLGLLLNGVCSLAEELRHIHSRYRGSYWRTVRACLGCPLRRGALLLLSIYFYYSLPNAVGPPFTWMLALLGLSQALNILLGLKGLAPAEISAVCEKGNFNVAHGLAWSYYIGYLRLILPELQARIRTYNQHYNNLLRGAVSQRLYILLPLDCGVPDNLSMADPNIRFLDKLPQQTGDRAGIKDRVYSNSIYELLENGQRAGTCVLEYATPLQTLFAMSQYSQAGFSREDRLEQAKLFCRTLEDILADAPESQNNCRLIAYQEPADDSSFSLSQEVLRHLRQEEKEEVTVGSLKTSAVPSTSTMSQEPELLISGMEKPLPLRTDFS
Protocol: Test Example 2. Human THP1 Reporter Cell Assay
• 1. Human THP1-Dual KI-hSTING-R232 Cells (InvivoGen, Cat. #thpd-r232) • 2. QUANTI-LUC (InvivoGen, Cat. #rep-qlc2) • 3. Media for cell culture and compound dilution: RPMI with high glucose and glutamine (Genesee, Cat. #25-506), 10% fetal bovine serum (Life Technologies, Cat. #10082147), 25 mM HEPES (Genesee, Cat. #25-534), 100 μg/ml Normocin (InvivoGen, Cat. #ant-nr-2), 10 μg/ml blasticidin (InvivoGen, Cat. #ant-bl-05), 100 μg/ml Zeocin (InvivoGen, Cat. #ant-zn-5p) and Penicillin-Streptomycin (100×) (Life Technologies, Cat. #15140122) • 4. Infinite M1000 plate reader (TECAN) Experimental Procedure
Activation of STING in THP1-Dual KI-hSTING-R232 cells was determined by measuring the luminescence signal resulting from the expression of the IRF luciferase reporter gene. All reagent preparation and assay procedures were conducted according to the protocols provided by InvivoGen. In brief, test compounds and cells (1×10^5 cells per well) were dispensed into 96-well plates with a final volume per well of 150 μl. Plates were incubated in a humidified, 5% CO2 incubator at 37° C. for 24 hours. The expression level of the reporter gene was measured by transferring 20 μl of the supernatant to a non-transparent 96-well plate to which 50 μl of QUANTI-LUC was dispensed into each well. The resulting luminescence signal was immediately read using a TECAN plate reader. The background luminescence signal from media was subtracted. The fold induction effect of the luminescence signal at each compound concentration was determined relative to controls that lack compound treatment. The plot of fold induction effect versus the log of compound concentration was fit in GraphPad Prism with a 4-parameter concentration response equation to calculate EC50 and Emax.
Activation of STING in THP1 of the compounds in the present invention was determined by the above assay, and EC50 values are shown in the following table 2.

Human PBMC cells = test: IFNβ secretion in human PBMC; type: cell-based; conditions: IFNβ in supernatant by ELISA, 5 hours incubation
Protocol: Test Example 3. IFNβ Secretion in Human PBMC
• 1. Human PBMC cells (STEMCELL Technologies) • 2. Lymphocyte Medium (Zenbio) • 3. Culture and compound dilution media: RPMI with high glucose and glutamine (Genesee, Cat. #25-506), 10% fetal bovine serum (Life Technologies, Cat. #10082147), 100 μg/ml Normocin (InvivoGen, Cat. #ant-nr-2) and Penicillin-Streptomycin (100×) (Life Technologies, Cat. #15140122) • 4. Human IFNβ Quantikine ELISA kit (R&D systems) • 5. Infinite M1000 plate reader (TECAN) Experimental Procedure
Cryopreserved peripheral blood human mononuclear cells (PBMCs) were rapidly thawed and resuspended in Lymphocyte Media and centrifuged at 500×g for 5 minutes. The supernatant was removed and the cell pellets were gently resuspended in cell culture and compound dilution media. Human PBMC cells were plated in a 96-well format at a concentration of 1.5×10^5 cells per well. The test compounds, at varying concentrations, or vehicle control (<0.3% DMSO) were mixed with the cells giving a final volume of 150 μl per well. The plates were incubated for 5 hours in a humidified, 5% CO2 incubator at 37° C. After incubation, the human IFNβ in the supernatant and the IFNβ standard controls were measured using human IFNβ Quantikine ELISA kit according to the manufacturer's protocol. The absorbance at 450 nm was measured with Infinite M1000 plate reader and corrected by background reading at 540 nm of each well. The amount of […] based on the standard curves. The plot of IFNβ concentration versus the log of compound concentration was fit in GraphPad Prism with a 4-parameter concentration response equation to calculate EC50 and Emax.

ΔTm at 100 µM [1] [°C] | EC50 [2] [nM] | Compound | EC50 (Human PBMC cells) [nM]
2.9 | 3000 | CC=CCC1COc2cc(C(N)=O)cc3nc(NC(=O)c4cc(C)nn4CC)n1c23 (stereo not drawn) [Example 5, 3-(but-2-en-1-yl)-2-(1-ethyl-3-methyl-1H-pyrazole-5-carboxamido)-3,4-dihydro-5-oxa-1,2a-diazaacenaphthylene-7-carboxamide] | 2000
10.7 | 30 | CCn1nc(C)cc1C(=O)Nc1nc2cc(C(N)=O)cc(OC)c2n1CCC[C@H]1COc2cc(C(N)=O)cc3nc(NC(=O)c4cc(C)nn4CC)n1c23 [Example 13, (S)-3-(3-(5-carbamoyl-2-(1-ethyl-3-methyl-1H-pyrazole-5-carboxamido)-7-methoxy-1H-benzo[d]imidazol-1-yl)propyl)-2-(1-ethyl-3-methyl-1H-pyrazole-5-carboxamido)-3,4-dihydro-5-oxa-1,2a-diazaacenaphthylene-7-carboxamide] | 100
